Assay results reported in patent US7880010B2, “Crystalline forms of a dimethylphenyl compound” (Theravance, Inc., priority 2006, dated 2011).

What was measured:
hM2 receptor [1] = biological target: T1, hM2 receptor (Homo sapiens, UniProt P08172); test: Blockade of agonist-mediated inhibition of cAMP accumulation (Assay A); type: cell-based; details: CHO-K1 cells expressing the hM2 receptor
T1 construct: expressed in transfected cells; host or cells: CHO / CHO-K1
T1 sequence (P08172 1-466): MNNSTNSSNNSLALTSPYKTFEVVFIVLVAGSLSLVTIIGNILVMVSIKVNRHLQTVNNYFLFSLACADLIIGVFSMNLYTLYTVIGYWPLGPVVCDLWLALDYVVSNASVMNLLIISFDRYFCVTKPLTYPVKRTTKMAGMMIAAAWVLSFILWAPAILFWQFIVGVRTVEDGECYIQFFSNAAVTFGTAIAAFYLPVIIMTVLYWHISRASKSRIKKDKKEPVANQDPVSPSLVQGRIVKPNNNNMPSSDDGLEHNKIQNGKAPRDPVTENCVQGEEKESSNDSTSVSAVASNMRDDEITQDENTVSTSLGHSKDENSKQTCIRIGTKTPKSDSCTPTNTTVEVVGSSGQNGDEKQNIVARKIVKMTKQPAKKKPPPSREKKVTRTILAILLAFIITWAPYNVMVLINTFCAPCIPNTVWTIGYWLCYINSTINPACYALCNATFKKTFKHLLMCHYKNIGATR
Protocol: In this assay, the functional potency of a test compound as an antagonist for the hM2 receptor was determined by measuring the ability of the test compound to block oxotremorine-inhibition of forskolin-mediated cAMP accumulation in CHO-K1 cells expressing the hM2 receptor. cAMP assays were performed in a radioimmunoassay format using the Flashplate Adenylyl Cyclase Activation Assay System with ^125I-cAMP (NEN SMP004B, PerkinElmer Life Sciences Inc., Boston, Mass.), according to the manufacturer's instructions. Cells were rinsed once with dPBS and lifted with Trypsin-EDTA solution (0.05% trypsin/0.53 mM EDTA) as described in the Cell Culture and Membrane Preparation section above. The detached cells were washed twice by centrifugation at 650×g for five minutes in 50 mL dPBS. The cell pellet was then re-suspended in 10 mL dPBS, and the cells were counted with a Coulter Z1 Dual Particle Counter (Beckman Coulter, Fullerton, Calif.). […]
Reactions were incubated for 10 minutes at 37° C. and stopped by addition of 100 μL ice-cold detection buffer. Plates were sealed, incubated overnight at room temperature and counted the next morning on a PerkinElmer TopCount liquid scintillation counter (PerkinElmer Inc., Wellesley, Mass.). The amount of cAMP produced (pmol/well) was calculated based on the counts observed for the samples and cAMP standards, as described in the manufacturer's user manual. […]

hM2 receptor [2] = biological target: T1, hM2 receptor; test: Blockade of agonist-mediated [35S]GTPγS binding (Assay B); type: biochemical; details: CHO-K1 cells expressing the hM2 receptor
Protocol: In this functional assay, the functional potency of a test compound as an antagonist of the hM2 receptor was determined by measuring the ability of the test compound to block oxotremorine-stimulated [^35S]GTPγS binding in CHO-K1 cells expressing the hM2 receptor.
At the time of use, frozen membranes were thawed and then diluted in assay buffer with a final target tissue concentration of 5 to 10 μg protein per well. The membranes were briefly homogenized using a Polytron PT-2100 tissue disrupter and then added to the assay plates.
The EC90 value (effective concentration for 90% maximal response) for stimulation of [^35S]GTPγS binding by the agonist oxotremorine was determined in each experiment.
To determine the ability of a test compound to inhibit oxotremorine-stimulated [^35S]GTPγS binding, the following was added to each well of 96 well plates: 25 μL of assay buffer with [^35S]GTPγS (0.4 nM), 25 μL of oxotremorine(EC90) and GDP (3 uM), 25 μL of diluted test compound and 25 μL CHO cell membranes expressing the hM2 receptor. […] Microscint-20 scintillation liquid (50 μL) was added to each well, and each plate was sealed and radioactivity counted on a Topcounter (PerkinElmer). Data were analyzed by nonlinear regression analysis with the GraphPad Prism Software package (GraphPad Software, Inc., San Diego, Calif.) using the non-linear regression, one-site competition equation. […]

Kobs for blockade of oxotremorine-inhibition of forskolin-mediated cAMP accumulation (hM2 receptor [1]): less than 10 nM
Kobs for blockade of oxotremorine-stimulated [35S]GTPγS binding (hM2 receptor [2]): less than 10 nM
SMILES: Cc1cc(NC(=O)CCN2CCC(OC(=O)Nc3ccccc3-c3ccccc3)CC2)c(C)cc1CNC[C@H](O)c1ccc(O)c(NC=O)c1 [compound of formula I, biphenyl-2-ylcarbamic acid 1-[2-(4-{[(R)-2-(3-formylamino-4-hydroxyphenyl)-2-hydroxyethylamino]methyl}-2,5-dimethylphenylcarbamoyl)ethyl]-piperidin-4-yl ester]
